Experimental data taken from US20180235870A1, “TRANSDERMAL FORMULATIONS FOR DELIVERY OF BERBERINE COMPOUNDS, AND THEIR USE IN THE TREATMENT OF BERBERINE-RESPONSIVE DISEASES AND CONDITIONS” (DELIVRA INC., priority 2015, published 2018).

Key:
[1] = oral route, published; cited from earlier work
[2] = cited from earlier work
[3] = tested on: PCSK9 expression in HEPG2 cells; test: Berberine signaling in HEPG2: PCSK9 western blot of supernatant; type: cell-based, human; conditions: 24 hours; for expression of PCSK9 in supernatant (western blot): 25 to 3.125 ug/ml, versus negative control
Protocol: HEPG2 cells were cultured in 24 well plates to confluence in DMEM supplemented with 10% FBS. After reaching confluence, cells were incubated overnight with 0.1% FBS OPTIMEM for serum starvation. After serum starvation the cells were incubated with berberine, DHB, or THB in 0.1% FBS OPTIMEM using the following dose course: 25 ug/ml, 12.5 ug/ml 6.25 ug/ml 3.125 ug/ml for 24 hours. Supernatant was collected after stimulation and western blotted as follows:
(1) Resolved on 12.5% gel.
(3) Blocked with 3% BSA TBST (4) Rabbit anti PCSK9 (Cayman chemicals cat 10007185) at 1/600 in TTBS (5) Wash 3×5 min with TTBS (6) HRP-Goat anti-Rabbit 1/1000 (Cayman chemicals) (7) Wash 3×5 min with TTBS (8) Detection with ECL
Proprotein convertase subtilisin/kexin type 9 (PCSK9) post-transcriptionally downregulates the low-density lipoprotein receptor (LDLR) by binding to the receptor's epidermal growth factor repeat A on the cell surface and shuttling the LDLR to the lysosomes for degradation. […] Previous reports indicate that berberine has lipid lowering effects in both animal models and human trials (Arrigo F. G., Cicero, L., Rovati C. et al., 2007). The signalling effects of berberine, DHB, and THB were evaluated using the human liver cell line HEPG2. PCSK9, an enzyme that acts in cholesterol homeostasis, is expressed in HEPG2 cells and these cells have previously been used as a model of dyslipidemia. PCSK9 binds to LDL receptor causing uptake of LDL and the LDL receptor and targets both molecules for degradation upon internalization. In the absence of PCSK9, LDL and LDL receptor are still internalized, however, LDL receptor is not degraded but instead recycled to the cell surface resulting in more efficient uptake of circulating LDL.

[4] = uptake inhibited by P-gp-mediated efflux; cited from earlier work
[5] = tested on: male Zucker fa/fa rat, a model of type 2 diabetes and metabolic disorder; test: Efficacy of transdermal berberine alone and in combination with pharmaceuticals in a model of metabolic syndrome (Example 19); type: in vivo, obese male Zucker fa/fa rats; conditions: Zucker fa/fa rats
Protocol: Fourteen obese male Zucker fa/fa rats at 5 weeks of age were housed for five weeks to the age of 10 weeks. During these five weeks, body weight measurements were taken once a week and once daily health observations were conducted for all animals. […] On Day 28, serum and whole liver was collected. […] Food and water intake measurements were taken once a week during the study period of Day 0 to Day 28. […] A sufficient amount of test article was supplied and formulated. Test article product was administered at a dose of 3.6 g/kg twice a day (e.g. […] Berberine cream was weighed fresh daily at each AM and PM dosing to avoid desiccation of the test article. Daily PO and TD dosing of the test articles took place between the hours of 08:00 to 10:00 and 16:00 to 18:00 for 7 days a week between Day 0 to 27. […] The exact time of dosing (up to the minute) was recorded for each animal on the daily dosing sheets. […] Remaining dosing solutions were stored at 4° C. between dosing periods. […] The animals shaved underwemt gaseous anaesthetic according to SOP ROD28.01 to ensure accuracy and avoid undue stress of the animal. The area was further shaven as needed over the course of the dosing period to ensure accurate drug application and absorption. At dosing, the animals were restrained and the transdermal test articles were applied in a uniform layer over the entire shaved area. […] PTS3028).

[6] = tested on: male Zucker rats (fa/fa); test: Efficacy of administration routes and dihydroberberine in a model of metabolic syndrome (Example 22); type: in vivo; conditions: BID
Protocol: This study examined the efficacy of administration of a derivative of berberine (dihydroberberine) in transdermal formulations in 24 male Zucker rats (fa/fa), similar to the study protocol in Example 19. The following formulations were prepared: […] Animals were maintained without treatment until ten weeks of age at which time groups were randomized by weight and blood glucose. Animal weights were recorded daily and expressed here as percent change from Day zero.

[7] = first four weeks of treatment, 0.5 g t.i.d.
[8] = averaged over the entire experiment

In the case of `COc1ccc2cc3[n+](cc2c1OC)CCc1cc2c(cc1-3)OCO2` [berberine, Berberine], the Tmax [1] is given as ~15 min, the “time to almost complete clearance after administration” value [1] is given as ≤ 30 min and the “abdominal pain, percentage of patients” value [2, 7] is given as 3.4%. The “constipation, percentage of patients” value [2, 7] was 6.9%, the “diarrhea, percentage of patients” value [2, 7] was 10.3% and the “flatulence, percentage of patients” value [2, 7] was 19.0%. The “patients with adverse gastrointestinal side-effects” value ([2]; type 2 diabetes patients, 13 week berberine treatment) was 34.5%, the “concentration down to which expression of PCSK9 was reduced” value [3] was 6.25 µg/mL and the “expression of PCSK9 in supernatant (western blot)” value [3] was “reduce the expression of PCSK9”. The “expression of PCSK9 in supernatant (western blot)” value ([3]; listed as Berberine) was “down-regulate the expression of PCSK9”, the bioavailability [4] was “less than 5%” and the “rate of weight gain (grams/day)” value ([5]; BID, Day 0 to 28, n=2) was 3.3 grams/day. For the same compound, the “overall triglyceride levels (mmol/L+/−SEM)” value ([5]; averaged for the entire experiment) was 9.5 ± 1.0 mmol/L, the “overall HbA1c level change (mmol/mmol+/−SEM)” value [5, 8] was 31.3+/−0.7 mmol/mmol and the “overall average food intake (grams+/−SEM)” value [5, 8] was 30.8+/−1.5 grams. For the same compound, the “overall cholesterol level change (mmol/L+/−SEM)” value [5, 8] was 5.0 ± 0.3 mmol/L, the “overall average glucose change (%+/−SEM)” value ([5]; non-fasting glucose, averaged over the entire experiment) was −24.0+/−0.6% and the “cholesterol levels on Day 14 (mmol/L+/−SEM)” value [6] was 8.3 ± 0.7 mmol/L. The “rate of weight gain (grams/day)” value [6] was 1.7 grams/day and the “triglyceride levels on Day 14 (mmol/L+/−SEM)” value [6] was 14.8 ± 3.0 mmol/L.
